Experiments:
[1] = test system: latent HIV in U1 cells; experiment: HIV transcription in U1 cells (RT-qPCR); assay type: cell-based; conditions: 6 nM PEP005, 2 μM JQ1, 24 h
Method: FIG. 2: PEP005 synergizes with other latency reversing agents in reactivating latent HIV. (A) J-Lat A1 cells were treated with 5 ng/ml PMA, 6 nM PEP005, 500 nM SAHA, 2 μM JQ1, 2 μM GSK343, or 10 μM Prostratin alone or in combination with 6 nM PEP005 for 24 hours and the percentage of GFP expressing cells was determined using flow cytometry. **, p<0.01; *, p<0.05 compared with control treatment; **, p<0.01; *, p<0.05 compared with PEP005 treatment alone. (B) The U1 cells were treated with 5 ng/ml PMA, 6 nM PEP005, 500 nM SAHA, 2 μM JQ1, or 2 μM GSK343, alone or in combination with 6 nM PEP005 for 24 hours and the HIV transcription was evaluated using RT-qPCR. […] Statistical significance was determined using a one tailed ratio t-test comparing predicted and observed drug combination effects. *p<0.05; **p<0.01.
J-Lat A1 cells (harboring a single copy of latent HIV LTR and one copy of green fluorescent protein gene under the HIV LTR control) or U1 cells (harboring two latent HIV genomes with defective Tat gene) were cultured in RPMI1640 medium with 10% fetal bovine serum (FBS) and 1% Pen/strep in a 37° C. incubator containing 5% CO2 [24,31]. […] HIV reactivation was quantified by GFP expression using flow cytometry and the data were analyzed using FlowJo Software for J-Lat A1 cells, or by quantitative RT-PCR (RT-qPCR) for J-Lat A1 and U1 cells. […]

[2] = test system: CD4, CCR5 and CXCR4; experiment: Expression of HIV receptors/co-receptors in primary CD4+ T cells (RT-qPCR); assay type: cell-based, human; conditions: primary CD4+ T cells of healthy HIV-negative donors, 12 nM PEP005, 72 hours
Method: FIG. 12: PEP005 down-modulates the expression of CD4, CCR5 and CXCR4 and inhibits HIV infection of primary CD4+ T cells ex vivo. (A) PEP005 inhibits expression of HIV receptors/co-receptors. […] The expression of CD4, CCR5 and CXCR4 genes was evaluated using RT-qPCR after normalizing for GAPDH. (B) and (C) PEP005 inhibits HIV infection of primary CD4+ T cells ex vivo. Primary CD4+ T cells were pre-treated with 12 or 24 nM PEP005 overnight and infected with the virus. The CD4+ T cells were incubated for 5 days without PEP005. The cells were collected for RT-qPCR targeting the HIV LTR region (B), or supernatants were collected for p24 ELISA (C). *, p<0.05; **, p<0.01.
Recent studies have shown that Prostratin and analogs down-modulate HIV receptor/co-receptor expression, which could have protective effects against the viral infection. Conversely, SAHA, known to induce latent HIV expression in HIV infected individuals receiving ART, was reported to increase susceptibility of naive CD4+ T cells to HIV acquisition. […] Primary CD4+ T cells from peripheral blood samples of healthy HIV-negative donors were treated with 12 nM PEP005 and evaluated for the expression levels of CD4, CCR5, and CCXR4 using RT-qPCR. […] The virological outcome in the CD4+ T cell cultures in vitro was monitored for 5 days.

**Q.** Which “increase in latent HIV reactivation / HIV transcription compared to controls” value [1] does the source give for C/C=C(/C)C(=O)O[C@H]1C(C)=C[C@]23C(=O)[C@@H](C=C(CO)[C@@H](O)[C@]12O)[C@H]1[C@@H](C[C@H]3C)C1(C)C [PEP005, (1aR,2S,5R,5aS,6S,8aS,9R,10aR)-5,5a-Dihydroxy-4-(hydroxymethyl)-1,1,7,9-tetramethyl-11-oxo-1a,2,5,5a,6,9,10,10a-octahydro-1H-2,8a-methanocyclopenta[a]cyclpropa[e][10]annulen-6-yl (2Z)-2-methylbut-2-enoate] here?
**A.** Its value is “about 25 fold”.

**Q.** And the “expression of CD4, CCR5, and CXCR4” value [2]?
**A.** The value was “significant reduction”.
